# “Also recorded” adds a separate entry of the source. Where two headings read alike, the source gives them in different places.
# Columns and labels:
# Rat toxicology, NOAEL = conditions: male, in vivo
# Method: The initial dose in the first cohort was ≤ 1/10 of the human equivalent dose (HED) estimated from the NOAEL (no observed adverse effect level) of the (male) rat, which is the most sensitive species, following the FDA guidance on the maximum recommended starting dose (MRSD) and EMA guidelines. The NOAEL of the rat is 6 mg/kg. […] The HED of 0.97 mg/kg was calculated; this scaled in a 70 kg human to 68 mg. Adjusting this dose to 1/10, the dose of the first cohort was 6.8; the actual administered dose will be 5 mg.
# [1] = Phase 1 study, safety and tolerability in healthy subjects; type: in vivo, human
# Method: The study was monitored by a Safety Review Committee (SRC). […] Safety and tolerability were assessed by the SRC between each cohort prior to ascending from one dose level to the next higher dose level in Part 1 (single ascending dose [SAD]) and Part 2 (multiple ascending dose [MAD]), and prior to initiating Part 3 (CSF), Part 4 (FE), and Part 5.
# Change from baseline to each scheduled time point up to EOS for vital signs; Change from baseline to each scheduled time point up to EOS for ECG parameters; Change from baseline to each scheduled time point up to EOS for clinical laboratory tests; Changes from baseline in C-SSRS scores (Part 2, Part 3, and Part 5 only); Treatment-emergent adverse events (AEs) up to EOS; Treatment-emergent AEs leading to premature discontinuation of study drug; Treatment-emergent serious adverse events (SAEs) up to EOS; and, Abnormalities in physical examination.
# [2] = Phase 1 study, pharmacokinetics in plasma and CSF, food effect; type: in vivo, human
# Text: The concentrations of Compound 1 in plasma and CSF were to be assessed in an open-label design in healthy male and female subjects. A single dose of Compound 1 was to be administered daily for 7 days in 1 cohort of 6 subjects (Cohort 3.1). The dose level of Part 3 was to be determined based upon a review of the safety, tolerability, and PK data of Part 1 and Part 2 of the study. While the MAD dose was to be determined further in development, that dose and schedule was to be applied to this part of the study.
# Eligibility was to be assessed during a screening period of up to 28 days. Subjects were to check into the clinic 1 day before dosing (Day −1). On the morning of Day 1 to Day 7, Compound 1 was to be orally administered after an overnight fast of at least 10 hours each day. Serial sampling of CSF and sampling of plasma for drug concentrations was to be performed on Day 7. The exact timing of the CSF and blood samples was to be determined based on the results of Part 1 and Part 2. […]
# The food effect (FE) part was a parallel, open-label part in healthy male and female subjects in up to 3 cohorts of 6 subjects each. […] The dose levels for this part were to be chosen based upon a review of available safety, tolerability and PK data as determined in Part 1 and Part 2.
# HTT mRNA [3] = assay: Phase 1 study, HTT mRNA in whole blood of healthy volunteers; type: in vivo, human; conditions: for Mean decrease in full-length HTT mRNA levels: after 14 days of treatment (MAD)
# Method: The Phase 1 study was conducted in 5 parts: single ascending doses (SAD)(Part 1), multiple ascending doses (MAD)(Part 2), CSF and blood sampling after 7 days of Compound 1 administration (Part 3), food effect (Part 4), and multiple dosing for up to 28 days (Part 5). Part 1, Part 2, and Part 5 are double blind; Part 3 and Part 4 are open-label. Note that Part 3, Part 4, and Part 5 may be conducted concurrently.
# The single ascending dose (SAD) part of the study was randomized, double-blinded, and placebo controlled in healthy male and female subjects.
# (§1) The multiple ascending (MAD) part of the study was randomized, double-blind, and placebo controlled in healthy male and female subjects. Up to five regimens are planned to be tested in up to 5 cohorts of 8 subjects each (Cohort 2.1 to 2.5). Within each cohort, 6 subjects were to receive Compound 1 and 2 subjects were to receive placebo. Subjects in Cohort 2.1 and 2.2 were to be dosed for 14 days, subjects in Cohort 2.3 to 2.5 were to be dosed for up to 21 days.
# The amount of HTT mRNA was then evaluated by RT-PCR 6 hours after administration of Compound 1 on day 14.
# HTT mRNA [4] = assay: PK-PD compartment model and decay-rate modelling of HTT mRNA and protein lowering; parameters: species or system human
# Text: (§2) HTT mRNA reaches steady state after approximately 5 days. For HTT protein, the half-life was estimated to be 5-7 days and consequently HTT protein steady state levels would only be attained about 6 weeks from the beginning of treatment.
# (§3) A target 30% to 50% decrease in mHTT is the range associated with decreased pathology and anticipated therapeutic benefit in patients. In the Phase 1 study, Compound 1-mediated HTT pre-mRNA splicing was dose dependent across all cohorts in both the SAD and MAD portions of the study. Mean decreases in full-length HTT mRNA levels of 40% and 60% were observed after 14 days of treatment with Compound 1 at 15 mg and 30 mg, respectively. On the basis of these clinical data, a PK-PD compartment model was used to simulate percentage of mRNA decreases (and thus the anticipated magnitude of HTT protein lowering) at additional potential clinical doses.
# [5] = as above; parameters: species or system human; conditions: 30 mg daily dose, model based on half-life
# Text: as §2, §3
# HTT protein = assay: Phase 1 study, HTT protein in blood of healthy volunteers (MAD); type: in vivo, human; conditions: after 21 days of treatment (MAD)
# Text: as §1
# In untreated cells, there is a steady state level of mRNA and protein because the amount of mRNA or protein being synthesized matches the amount that is being degraded, so that the mRNA and protein levels are the same over time. The addition of Compound 1 triggers the inclusion of the HTT pseudoexon into the transcript which results in the rapid decay of the HTT mRNA and a reduction of HTT mRNA to […]. […] In this example, ˜50% of newly synthesized mRNA was inhibited. Of the HTT mRNA synthesized prior to treatment, about 50% is degraded after 24 hours. The HTT protein level depends on how much mRNA is produced. Thus, a reduction by 50% would cause a 50% reduction of the HTT protein. […] Changes in HTT protein levels were assessed in MAD cohort over a longer period of time. Accordingly, healthy subjects were treated for 21 days before the amount of HTT mRNA and protein was measured in blood samples taken from each subject. […]
smiles,measurement,setting,value
"CC1(C)CC(n2nnc3cc(-c4ccc(-n5nccn5)cc4O)nnc32)CC(C)(C)N1 [Compound 1, 2-[3-(2,2,6,6-tetramethylpiperidin-4-yl)-3H-[1,2,3]triazolo[4,5-c]pyridazin-6-yl]-5-(2H-1,2,3-triazol-2-yl)phenol]",NOAEL,"Rat toxicology, NOAEL; (male) rat, germ cell exfoliation in epididymis and testes, read-out: NOAEL (no observed adverse effect level)",6 mg/kg
same,NOAEL,"Rat toxicology, NOAEL; from rat NOAEL, read-out: human equivalent dose (HED) estimated from the NOAEL",0.97 mg/kg
same,dose-limiting toxicities,[1]; SAD and MAD portions,no events considered to be dose-limiting toxicities
same,laboratory abnormalities and ECG findings,"[1]; any dose, SAD and MAD portions",no clinically significant laboratory abnormalities or electrocardiogram (ECG) findings
same,safety and tolerability,"[1]; single doses 5 to 135 mg, multiple doses 15 and 30 mg up to 21 days",well-tolerated with no safety-related findings; also recorded: safe and generally well tolerated
same,drug half-life,[2]; MAD cohort,long drug half-life
same,Compound levels in the CSF compared with plasma,"[2]; healthy subjects, 30 mg daily dose",equal to or greater than levels observed in plasma
same,Mean decrease in full-length HTT mRNA levels,HTT mRNA [3]; 15 mg,40%
same,Mean decrease in full-length HTT mRNA levels,HTT mRNA [3]; 30 mg,60%
same,maintenance of splicing following the last dose,HTT mRNA [3]; MAD cohort,up to 72 hours
same,HTT mRNA in whole blood,"HTT mRNA [3]; MAD: 15 mg or 30 mg for 14 days, 6 hours after dose on day 14",dose-dependent lowering of HTT mRNA
same,time for HTT mRNA levels to reach steady state,HTT mRNA [3]; Multiple Ascending Dose Study,4 to 5 days
same,total amount of HTT mRNA,"HTT mRNA [3]; SAD cohort, 24 hours after dose, even with higher concentrations",about 50 % of baseline
same,persistence of HTT splicing effect post cessation of treatment,HTT mRNA [3]; SAD cohorts,72 h
same,HTT mRNA in whole blood,"HTT mRNA [3]; SAD: 5, 15, 45, 90 or 135 mg, 24 hours after dose",dose-dependent lowering of HTT mRNA
same,HTT mRNA lowering (target level achieved),"HTT mRNA [3]; lowest dose tested, both SAD and MAD cohorts",30-50%
same,predicted percent full-length HTT mRNA decrease from baseline,"HTT mRNA [4]; 10 mg QD and 20 mg QD, PK-PD compartment model",30 to 50%
same,predicted time for HTT mRNA to reach steady state,"HTT mRNA [4]; 30 mg daily dose, model based on half-life",approximately 5 days
same,predicted time for HTT protein steady state levels,[5],about 6 weeks
same,lowering in the amount of HTT protein,HTT protein,approximately 40%

# From patent publication US20220162610A1, “NOVEL RNA TRANSCRIPT” (PTC Therapeutics, Inc., priority 2020, published 2022)
